In assay [1] the test system is A549 lung tumor cells. The assay is described as follows: Cell viability, AlamarBlue assay. The conditions noted are these: dose dependence. The assay is classed as cell-based, human.
Assay [2] concerns pAkt in A549 and D54 cells. The assay is described as follows: Cellular PI3K inhibition, Western blot of pAkt in cultured tumor cells. The format is cell-based, human. The settings on record: 1 hour; for PI3K inhibition in cells: A549 and D54 cell lines, Western blot; for PI3K activity indicated by level of pAKT: cultured A549 cells, Western blot vs DMSO. As to the method: The in vitro MEK1 and PI3K inhibitory activity of these series of compounds was also assessed in cultured tumor cells (D54, A549). Cellular efficacy of MEK1 and PI3K inhibition by inhibitor compounds was measured by changes in phosphorylation of pErk1/2 and pAkt, respectively. […] Cells were incubated in the presence of indicated compounds for 1 hour and lysates probed with specific antibodies against pAKT and pERK 1/2 and compared with vehicle control (DMSO). A549 (FIG. 2A) and D54 (FIG. 2B) cells were treated with inhibitors at the indicated concentrations for 1 hour and subjected to Western blot analysis.
Western Blot Analysis. Cells were seeded in six-well dishes 24 hours prior to treatment and incubated with the respective inhibitor compound solutions for 1 h. Cells were washed with phosphatebuffered saline (PBS) and lysed with NP-40 lysis buffer (1% NP40, 150 mM NaCl, and 25 mM Tris, pH 8.0) supplemented with protease inhibitors (Complete protease inhibitor cocktail, Roche, Basel, Switzerland) and phosphatase inhibitors (PhosSTOP, Roche, Basel, Switzerland). Concentration of protein was determined using Lowry assays (Bio-Rad, Hercules, Calif.), and equal amounts of whole cell protein lysate were loaded in each lane and resolved using 4-12% gradient Bis-Tris gel (Invitrogen, CA). Proteins were transferred to 0.2 μm nitrocellulose membranes (Invitrogen, CA). Membranes were incubated overnight at 4° C. with primary antibodies after blocking, followed by incubation with appropriate horseradish peroxidase (HRP) conjugated secondary antibody at room temperature for 1 hour. ECL-Plus was used to detect the activity of peroxidase according to the manufacturer's protocol (Amersham Pharmacia, Uppsala, Sweden). Antibodies raised against phospho-p44/42 MAPK (Erk1/2) (Thr202/Tyr204), pAKT(5473), phospho-p70 S6K* and total ERK, AKT antibodies were purchased from Cell Signaling Technology (Beverly, Mass., USA), and anti-β actin (conjugated with HRP) was purchased from Abcam (Cambridge, Mass., USA). Secondary HRP antibodies were purchased from Jackson ImmunoResearch (St. Louis, Mo., USA).

For assay [3], the system named is ERK1/2 phosphorylation. The assay is described as follows: In vivo MEK1 inhibition in flank D54 and A549 tumor bearing mice (Western blot). The conditions noted are these: for phosphorylation of ERK1/2 (MEK1 activity) in excised tumor tissue: D54 and A549 tumors, compound 14: 375 mg/kg oral gavage, 2 h. (In general: In western blotting, separated proteins are transferred to a membrane and probed.)
Method: Four athymic nude Foxn1nu mice were used to evaluate oncogenic target modulation activity in vivo.
In Vivo Evaluation of Inhibitor Efficacy.
Each injectate contained a total volume of 200 μL of cell suspension in 50% RPMI medium mixed with 50% BD Matrigel basement membrane matrix (Becton, Dickinson and Company, East Rutherford, N.J.). […] Tumor tissues were collected from both vehicle and drug-treated groups and subjected to Western blot analysis as previously described.

The test system of assay [4] is D54 glioma cells. Kind of assay: Cell viability, AlamarBlue assay. The assay is classed as cell-based, human. The settings on record: dose dependence. (In general: Alamar Blue is a resazurin reagent that responds to reducing activity.)
Assay [5] concerns Akt phosphorylation. Kind of assay: In vivo PI3K inhibition in flank D54 and A549 tumor bearing mice (Western blot). The conditions noted are these: for phosphorylation of Akt (PI3K activity) in excised tumor tissue: D54 and A549 tumors, compound 14: 375 mg/kg oral gavage, 2 h.
Assay [6] has as its system pErk1/2 in A549 and D54 cells. Kind of assay: Cellular MEK1 inhibition, Western blot of pErk1/2 in cultured tumor cells. The settings on record: A549 and D54 cell lines, 1 hour. The format is cell-based, human.
Method: Western Blot Analysis. […] Cells were washed with phosphatebuffered saline (PBS) and lysed with NP-40 lysis buffer (1% NP40, 150 mM NaCl, and 25 mM Tris, pH 8.0) supplemented with protease inhibitors (Complete protease inhibitor cocktail, Roche, Basel, Switzerland) and phosphatase inhibitors (PhosSTOP, Roche, Basel, Switzerland). […] Proteins were transferred to 0.2 μm nitrocellulose membranes (Invitrogen, CA). Membranes were incubated overnight at 4° C. with primary antibodies after blocking, followed by incubation with appropriate horseradish peroxidase (HRP) conjugated secondary antibody at room temperature for 1 hour. ECL-Plus was used to detect the activity of peroxidase according to the manufacturer's protocol (Amersham Pharmacia, Uppsala, Sweden).
For assay [7], the target named is PI3K (Homo sapiens, UniProt P42336). Kind of assay: In vitro PI3K inhibition assay (Adapta TR-FRET). The format is biochemical. The settings on record: average of three experiments each conducted in duplicate. On the technique in general: In TR-FRET formats the signal depends on donor and acceptor labels being close together.
Method: In Vitro PI3K Inhibition Assays.
Quantitation of PI3K lipid kinase activity was carried out by Life Technologies (Madison, Wis.) with purified enzyme using the fluorescence-based Adapta TR-FRET assay protocol. Assays were conducted in triplicate with various inhibitor concentrations (0.1 nM to 10 μM).
Assay [8] concerns the target T1, MEK1 (Homo sapiens, UniProt Q02750).
T1 construct: purchased Sigma-Aldrich
Kind of assay: In vitro MEK1 inhibition assay (Kinase-Glo luminescent kinase assay). The format is biochemical. The conditions noted are these: average of three experiments each conducted in duplicate.
Method: In Vitro MEK1 Inhibition Assays.
In vitro MEK1 inhibition activity of inhibitor analogs were determined using Kinase-Glo luminescent kinase assay kits from Promega (WI, USA) per manufacturer's instructions. […] Briefly, series of compound dilutions were added in 96-well plates, followed by MEK1, Erk2, and ATP solutions. Kinase reactions were run at 30° C. for 30 minutes. Equal volumes of Kinase-Glo solution were then added, and reactions were incubated at room temperature for a further 30 minutes. Bioluminescence signals were acquired with an Envision multilabel reader from Perkin Elmer. Assays were conducted in triplicate with various inhibitor concentrations each run in duplicate. IC50 data were calculated using GraphPad Prism software (version 5.0, La Jolla, Calif.).

In assay [9] the test system is A375 (melanoma), D54 (glioma), CT26 colorectal cancer, A2058 (melanoma) cell lines. The assay is described as follows: Concurrent inhibition in tumor cell lines (multifunctional inhibitors). The format is cell-based. The text has this: The synthesis of another series of single entity, multifunctional inhibitors achieved by covalent linking of structural analogs of a PI3K inhibitor mTOR inhibitor, and an MEK inhibitor is also disclosed.

Assay [10] concerns the target T2, PI3Kα (Homo sapiens, UniProt P42336).
T2 construct: purchased Life Technologies (assay run by the vendor)
Kind of assay: PI3K subtype enzyme inhibition. The format is biochemical. The settings on record: mean ± SEM; read-out: PI3K Subtype Inhibition Activity PI3Kα.

In assay [11] the target is T3, PI3Kγ (Homo sapiens, UniProt P48736).
T3 construct: purchased Life Technologies (assay run by the vendor)
The assay is described as follows: PI3K subtype enzyme inhibition. The assay is classed as biochemical.

Assay [12] deals with T4, PI3Kβ (Homo sapiens, UniProt P42338).
T4 construct: purchased Life Technologies (assay run by the vendor)
The assay is described as follows: PI3K subtype enzyme inhibition. The assay is classed as biochemical.

The test system of assay [13] is MEK1 and PI3K activities. The assay is described as follows: In vivo MEK1 and PI3K inhibition in intracerebral D54 glioma bearing mice (Western blot). The settings on record: intracerebral D54, 400 mg/kg oral gavage, 2 hours. The protocol:
Mice bearing i.c. D54 tumors were treated with either vehicle or 400 mg/kg of ST-162 or ST-168 by oral gavage at 2 hours prior to sacrifice.

For assay [14], the system named is melanoma tumors A2058 and A357. Kind of assay: Tumor growth of subcutaneous melanoma tumors. The format is in vivo, mice. The conditions noted are these: 400 mg/kg oral gavage, 14 days, vs vehicle, listed as ST-162, 400 mg/kg. As to the method:
(§1) In preliminary studies, several mouse models were tested for therapeutic efficacy using oral administration of ST-162. Athymic nude Foxn1 nu mice were used to evaluate oncogenic target modulation activity in vivo. Mice bearing intracerebral D54 tumors, subcutaneous colon tumors (CT26) and subcutaneous melanoma (A375 and A2058) tumors were treated with either vehicle control or 400 mg/kg of compound ST-162 by oral gavage for 14-30+ days.
In FIG. 9, compound ST-162 was administered for 14 days beginning when subcutaneous melanoma tumors A2058 and A357 were measurable by caliper and MRI and tumor volumes were measured over time and compared to vehicle controls.

The test system of assay [15] is colon tumors CT-26. Kind of assay: Tumor growth of subcutaneous colon tumors. The assay is classed as in vivo, mice. The settings on record: for tumor growth: subcutaneous CT26, 400 mg/kg oral gavage, 14 days, vs vehicle. The protocol:
as §1
In FIG. 10, compound ST-162 was administered for 14 days beginning when subcutaneous colon tumors CT-26 were measurable by caliper and MRI and tumor volumes were measured over time and compared to vehicle controls.
In FIG. 11, ST-162 was administered for 14 days beginning when subcutaneous colon tumors CT-26 were measurable by caliper and MRI and tumor volumes were measured over time and compared to vehicle controls. At day 14, two tumors were removed and compared for size and weight.

The test system of assay [16] is intracerebral D54 glioma tumors. The assay is described as follows: Survival of mice bearing intracerebral D54 tumors. The format is in vivo. The conditions noted are these: intracerebral D54, 400 mg/kg oral gavage, vs vehicle control; listed as ST-162. As to the method:
as §1

Assay [17] relates to MEK1 and PI3K activities. Kind of assay: In vivo MEK1 and PI3K inhibition in subcutaneous melanoma tumors A357 and A2058 (Western blot). More on the design: species or system mice. The conditions noted are these: s.q. melanoma A357 and A2058, 400 mg/kg oral gavage, 2 hours. As to the method:
Mice bearing s.q. melanoma tumors were treated with either vehicle or 400 mg/kg of ST-162 or ST-168 by oral gavage at 2 hours prior to sacrifice.

Assay [18] deals with MEK1 and PI3K activities. Kind of assay: In vivo MEK1 and PI3K inhibition in subcutaneous colon tumor CT26 (Western blot). The conditions noted are these: subcutaneous CT26, 400 mg/kg oral gavage, 2 hours. Further details: species or system mice. As to the method:
Mice bearing subcutaneous colon tumors were treated with either vehicle or 400 mg/kg of ST-162 or ST-168 by oral gavage at 2 hours prior to sacrifice. The known MEK inhibitor 901 and PI3K inhibitors were also evaluated in this study.

[19] abbreviates: oral administration, 2 h postadministration, Western blot.

“And” between values parts separate entries of the source, which are not always exact repeats. Identical values can stand only once. “Also recorded” adds a separate entry of the source. Like-named read-outs stand apart in the source and are kept apart here.

T1 sequence (Q02750 whole entry): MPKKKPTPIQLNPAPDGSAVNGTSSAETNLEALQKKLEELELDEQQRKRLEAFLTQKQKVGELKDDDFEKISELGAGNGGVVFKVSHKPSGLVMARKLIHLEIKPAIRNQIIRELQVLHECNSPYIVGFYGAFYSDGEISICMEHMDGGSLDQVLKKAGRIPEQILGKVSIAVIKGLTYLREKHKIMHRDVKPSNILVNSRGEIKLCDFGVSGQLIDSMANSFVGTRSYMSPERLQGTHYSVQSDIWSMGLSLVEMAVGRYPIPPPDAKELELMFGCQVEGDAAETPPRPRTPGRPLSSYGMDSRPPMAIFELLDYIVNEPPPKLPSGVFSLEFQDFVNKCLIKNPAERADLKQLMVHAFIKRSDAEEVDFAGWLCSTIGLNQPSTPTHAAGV
Chain of PI3K (P42336 whole entry): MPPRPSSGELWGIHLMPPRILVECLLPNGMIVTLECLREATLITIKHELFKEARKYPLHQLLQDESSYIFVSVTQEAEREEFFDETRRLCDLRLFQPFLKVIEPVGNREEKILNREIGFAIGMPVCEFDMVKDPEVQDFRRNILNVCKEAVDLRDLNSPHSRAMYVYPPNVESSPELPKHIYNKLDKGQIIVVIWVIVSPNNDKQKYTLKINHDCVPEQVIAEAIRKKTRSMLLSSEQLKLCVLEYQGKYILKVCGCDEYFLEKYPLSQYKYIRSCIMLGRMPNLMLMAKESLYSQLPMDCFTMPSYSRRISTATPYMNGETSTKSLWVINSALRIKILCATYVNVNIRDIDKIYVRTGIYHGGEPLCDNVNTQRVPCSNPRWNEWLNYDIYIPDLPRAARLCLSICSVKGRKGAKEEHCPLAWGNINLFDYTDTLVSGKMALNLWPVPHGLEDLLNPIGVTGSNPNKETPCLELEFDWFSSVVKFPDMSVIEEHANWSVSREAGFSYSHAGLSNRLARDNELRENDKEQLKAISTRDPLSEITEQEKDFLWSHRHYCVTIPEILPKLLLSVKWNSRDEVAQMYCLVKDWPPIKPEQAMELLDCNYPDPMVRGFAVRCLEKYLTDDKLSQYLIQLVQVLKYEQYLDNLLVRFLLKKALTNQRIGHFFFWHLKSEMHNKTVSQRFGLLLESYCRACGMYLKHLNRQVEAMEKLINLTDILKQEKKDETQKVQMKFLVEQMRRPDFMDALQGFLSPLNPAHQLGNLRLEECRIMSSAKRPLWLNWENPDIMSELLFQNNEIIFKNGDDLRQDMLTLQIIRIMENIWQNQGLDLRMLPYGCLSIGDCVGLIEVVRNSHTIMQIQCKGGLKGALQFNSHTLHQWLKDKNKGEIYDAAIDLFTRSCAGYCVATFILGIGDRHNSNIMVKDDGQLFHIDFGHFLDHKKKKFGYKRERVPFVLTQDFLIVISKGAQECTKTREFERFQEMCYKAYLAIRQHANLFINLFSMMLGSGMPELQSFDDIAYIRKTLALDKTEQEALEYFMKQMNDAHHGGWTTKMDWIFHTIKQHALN
T3 sequence (P48736 whole entry): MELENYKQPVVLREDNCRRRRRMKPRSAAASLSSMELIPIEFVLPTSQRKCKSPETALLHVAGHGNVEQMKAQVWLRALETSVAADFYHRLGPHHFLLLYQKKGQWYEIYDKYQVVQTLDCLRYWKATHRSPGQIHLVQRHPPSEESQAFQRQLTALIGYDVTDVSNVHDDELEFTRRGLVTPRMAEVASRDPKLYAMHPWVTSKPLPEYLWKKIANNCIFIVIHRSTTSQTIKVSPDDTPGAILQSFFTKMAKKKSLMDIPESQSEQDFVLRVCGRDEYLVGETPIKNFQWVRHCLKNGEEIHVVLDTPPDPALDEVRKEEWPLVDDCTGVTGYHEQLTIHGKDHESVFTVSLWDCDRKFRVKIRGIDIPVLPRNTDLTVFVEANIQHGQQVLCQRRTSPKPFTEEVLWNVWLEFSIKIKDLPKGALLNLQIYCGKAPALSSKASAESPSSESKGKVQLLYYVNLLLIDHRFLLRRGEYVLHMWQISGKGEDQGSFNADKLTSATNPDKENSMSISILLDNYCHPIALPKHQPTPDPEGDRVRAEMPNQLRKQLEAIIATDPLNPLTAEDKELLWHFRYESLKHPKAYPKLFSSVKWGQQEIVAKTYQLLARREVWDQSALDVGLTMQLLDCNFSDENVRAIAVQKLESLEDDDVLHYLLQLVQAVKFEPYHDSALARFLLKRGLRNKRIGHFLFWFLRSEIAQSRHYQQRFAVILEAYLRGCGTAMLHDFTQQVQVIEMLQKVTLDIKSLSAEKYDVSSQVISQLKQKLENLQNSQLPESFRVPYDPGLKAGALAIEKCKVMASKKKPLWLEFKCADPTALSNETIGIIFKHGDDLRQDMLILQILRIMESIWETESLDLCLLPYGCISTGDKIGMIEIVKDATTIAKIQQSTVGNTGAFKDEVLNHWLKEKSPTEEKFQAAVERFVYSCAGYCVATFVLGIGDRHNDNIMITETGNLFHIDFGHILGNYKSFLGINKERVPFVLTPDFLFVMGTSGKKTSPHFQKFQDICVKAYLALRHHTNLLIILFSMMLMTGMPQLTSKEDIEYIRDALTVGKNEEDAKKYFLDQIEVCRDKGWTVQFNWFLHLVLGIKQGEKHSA
T4 sequence (P42338 whole entry): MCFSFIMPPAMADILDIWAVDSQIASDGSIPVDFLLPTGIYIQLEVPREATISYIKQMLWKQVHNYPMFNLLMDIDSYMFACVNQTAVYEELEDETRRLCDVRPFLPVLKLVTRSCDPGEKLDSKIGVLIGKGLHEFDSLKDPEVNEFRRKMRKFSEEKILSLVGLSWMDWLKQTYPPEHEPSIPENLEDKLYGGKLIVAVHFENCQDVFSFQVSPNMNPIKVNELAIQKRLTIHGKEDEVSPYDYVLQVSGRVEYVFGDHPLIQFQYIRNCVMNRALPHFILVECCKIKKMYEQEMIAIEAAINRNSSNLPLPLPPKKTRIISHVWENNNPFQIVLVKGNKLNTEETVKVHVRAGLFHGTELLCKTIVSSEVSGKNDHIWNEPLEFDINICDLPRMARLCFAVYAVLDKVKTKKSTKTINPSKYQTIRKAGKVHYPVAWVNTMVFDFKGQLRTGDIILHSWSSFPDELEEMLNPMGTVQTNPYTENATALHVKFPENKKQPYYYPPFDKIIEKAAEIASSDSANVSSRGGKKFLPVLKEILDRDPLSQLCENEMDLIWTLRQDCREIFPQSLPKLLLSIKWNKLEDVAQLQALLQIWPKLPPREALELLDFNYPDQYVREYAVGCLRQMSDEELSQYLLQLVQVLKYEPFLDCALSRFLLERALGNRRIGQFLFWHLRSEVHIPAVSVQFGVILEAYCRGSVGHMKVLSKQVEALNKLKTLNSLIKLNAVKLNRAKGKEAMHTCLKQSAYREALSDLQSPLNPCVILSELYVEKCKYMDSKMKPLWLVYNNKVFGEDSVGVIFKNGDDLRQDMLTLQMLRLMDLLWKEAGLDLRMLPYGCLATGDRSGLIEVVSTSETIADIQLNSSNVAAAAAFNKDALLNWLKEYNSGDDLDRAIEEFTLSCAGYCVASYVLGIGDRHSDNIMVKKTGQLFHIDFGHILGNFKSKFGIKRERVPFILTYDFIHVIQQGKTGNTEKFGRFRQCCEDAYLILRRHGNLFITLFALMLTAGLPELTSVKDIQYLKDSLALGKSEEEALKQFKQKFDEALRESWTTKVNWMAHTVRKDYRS
T4 sequence (P27986 whole entry partner): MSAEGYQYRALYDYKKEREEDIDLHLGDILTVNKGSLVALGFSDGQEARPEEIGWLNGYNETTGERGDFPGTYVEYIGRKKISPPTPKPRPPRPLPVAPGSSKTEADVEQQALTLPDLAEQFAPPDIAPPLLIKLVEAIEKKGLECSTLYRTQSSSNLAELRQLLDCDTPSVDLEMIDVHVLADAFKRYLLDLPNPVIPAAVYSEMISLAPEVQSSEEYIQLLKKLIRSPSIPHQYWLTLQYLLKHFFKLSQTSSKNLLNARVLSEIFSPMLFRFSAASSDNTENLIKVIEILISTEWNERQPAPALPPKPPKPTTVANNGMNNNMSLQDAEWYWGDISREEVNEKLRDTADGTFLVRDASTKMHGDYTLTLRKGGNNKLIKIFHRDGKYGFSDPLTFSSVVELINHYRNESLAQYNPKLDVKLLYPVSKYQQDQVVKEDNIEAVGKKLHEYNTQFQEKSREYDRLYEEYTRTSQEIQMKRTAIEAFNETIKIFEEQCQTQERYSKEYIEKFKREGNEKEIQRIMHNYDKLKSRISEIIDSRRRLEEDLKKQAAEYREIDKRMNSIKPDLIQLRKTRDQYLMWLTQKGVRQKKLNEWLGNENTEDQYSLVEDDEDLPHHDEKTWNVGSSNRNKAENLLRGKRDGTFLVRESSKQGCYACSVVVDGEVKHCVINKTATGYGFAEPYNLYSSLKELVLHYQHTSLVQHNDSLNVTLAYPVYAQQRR
T2 sequence (P42336 whole entry): as the sequence (P42336 whole entry) above
T2 sequence (P27986 whole entry partner): as the sequence (P27986 whole entry partner) above

In the case of `O=C(NOCCNCCCCCC(=O)N1CCN(c2nc(N3CCOCC3)nc(-n3c(C(F)F)nc4ccccc43)n2)CC1)c1ccc(F)c(F)c1Nc1ccc(I)cc1F` [Compound 9, N-(2-((6-(4-(4-(2-(Difluoromethyl)-1H-benzo[d]imidazol-1-yl)-6-morpholino-1,3,5-triazin-2-yl)piperazin-1-yl)-6-oxohexyl)amino)ethoxy)-3,4-difluoro-2-((2-fluoro-4-iodophenyl)amino)benzamide], the cell viability result in assay [1] is “as effective as the combination of ZSTK474 and PD0325901”. Moreover, in assay [2], the “PI3K inhibition in cells” value is “most pronounced” and the “PI3K activity indicated by level of pAKT” value is on record as “high potency in inhibiting PI3K activity”. Moreover, the “phosphorylation of ERK1/2 (MEK1 activity) in excised tumor tissue” value in assay [3] was “modulation of ERK1/2 and pAkt levels was also achieved”. Further, the cell viability entry in assay [4] was “as effective as the combination of ZSTK474 and PD0325901”. In addition, in [5], the “phosphorylation of Akt (PI3K activity) in excised tumor tissue” value is “modulation of ERK1/2 and pAkt levels was also achieved”. Also, the “MEK inhibition in cells” value in assay [6] is given as “most pronounced”.

For `O=C(NOCCNCCCCS(=O)(=O)N1CCN(c2nc(N3CCOCC3)nc(-n3c(C(F)F)nc4ccccc43)n2)CC1)c1ccc(F)c(F)c1Nc1ccc(I)cc1F` [Compound 11], the IC50 in [7] was 191 to 341 nM and 285 nM; in [8], 56.7 ± 1.3 nM.

Turning to `O=C(NOCCOCCOCCOCCN1CCN(c2nc(N3CCOCC3)nc(-n3c(C(F)F)nc4ccccc43)n2)CC1)c1ccc(F)c(F)c1Nc1ccc(I)cc1F` [Compound 14], the cell viability entry is “as effective as the combination of ZSTK474 and PD0325901” in assay [1]; “as effective as the combination of ZSTK474 and PD0325901” in [4]. Further, in [9], the “Concurrent inhibition in tumor cell lines” value is recorded as “Concurrent inhibition was demonstrated”. Moreover, the “PI3K inhibition in cells” value in [2] is on record as “inhibition was demonstrated; also recorded: most pronounced”. In addition, the “PI3K activity indicated by level of pAKT” value in assay [2] is reported as “high potency in inhibiting PI3K activity”. For the same compound, the IC50 in [10] is 467 ± 9 nM; in assay [11] (mean ± SEM, read-out: PI3K Subtype Inhibition Activity PI3Kγ), 5800 ± 511 nM; in [11] (read-out: PI3K Subtype Enzyme Inhibition Data IC50 PI3Kγ), 5800 ± 511 nM; in [7], 191 to 341 nM; in [12] (mean ± SEM, read-out: PI3K Subtype Inhibition Activity PI3Kβ), 4070 ± 290 nM; in assay [12] (read-out: PI3K Subtype Enzyme Inhibition Data IC50 PI3Kβ), 4070 ± 290 nM. The compound also gave an IC50 in assay [8] of 0.15 nM. Moreover, the “phosphorylation of ERK1/2 (MEK1 activity) in excised tumor tissue” value in [3] (375 mg/kg) was “inhibited phosphorylation; also recorded: significant inhibition”. The “inhibition of tumor ERK1/2 phosphorylation” value in assay [3] (setting [19]) is 95%. Moreover, the “MEK1 and PI3K activities in tumor relative to vehicle control” value was “successfully modulated both MEK1 and PI3K activities” in [13]; “successfully modulated both MEK1 and PI3K activities” in assay [17]; “successfully modulated MEK1 and PI3K activities” in assay [18]. Also, the tumor growth entry is “significant tumor growth delays; also recorded: significant reduction of tumor growth” in [14], “significant reduction of tumor growth” in assay [15] (listed as MV4-162) and “significant tumor growth delays” in assay [15] (listed as ST-162). Further, in [15] (CT-26, day 14, vs vehicle control tumors), the “size of excised tumors” value is “smaller in volume”. The “phosphorylation of Akt (PI3K activity) in excised tumor tissue” value in [5] (375 mg/kg) is “inhibited phosphorylation; also recorded: significant inhibition”. Besides, in [5] (setting [19]), the “inhibition of tumor Akt phosphorylation” value stood at 67%. The overall survival result in assay [16] is “improved animal survival; also recorded: significant improvement (P=0.0054)”. In assay [6], the “MEK inhibition in cells” value is reported as “inhibition was demonstrated; also recorded: most pronounced”.

Turning to `O=C(CNCCONC(=O)c1ccc(F)c(F)c1Nc1ccc(I)cc1F)NCCCCCC(=O)N1CCN(c2nc(N3CCOCC3)nc(-n3c(C(F)F)nc4ccccc43)n2)CC1` [Compound 7, N-(2-((2-((6-(4-(4-(2-(Difluoromethyl)-1H-benzo[d]imidazol-1-yl)-6-morpholino-1,3,5-triazin-2-yl)piperazin-1-yl)-6-oxohexyl)amino)-2-oxoethyl)amino)ethoxy)-3,4-difluoro-2-((2-fluoro-4-iodophenyl)amino)benzamide], in assay [2], the “PI3K activity indicated by level of pAKT” value is listed as “high potency in inhibiting PI3K activity”. In assay [8], this compound displayed an IC50 of 0.5 ± 1.2 nM.

For the origin of these results see patent US10919877B2, “Multifunctional inhibitors of MEK/PI3K and mTOR/MEK/PI3K biological pathways and therapeutic methods using the same” (THE REGENTS OF THE UNIVERSITY OF MICHIGAN, priority 2016, dated 2021).
